Tests used:
[1] = system: contraction of rat blood vessel (norepinephrine); assay: inhibition of norepinephrine-induced contraction of rat blood vessel; assay type: in vivo; settings: norepinephrine 10^-6 g/kg; dose 1 mg/kg i.v.; anesthetized normal rats; Means ± S.D.; n=8
Protocol: (§1) The effect on the contraction of rat blood vessel Norepinephrine and octopamine were injected into various anesthetized normal rats respectively, so that a contraction of rat blood vessels was induced and the blood pressure increased. […] Therefore, the tannins are potent in inhibiting the contraction of blood vessels and the effect of the tannins on the wall of blood vessel is also significant.

[2] = system: contraction of rat blood vessel (octopamine); assay: inhibition of octopamine-induced contraction of rat blood vessel; assay type: in vivo; settings: octopamine 8 × 10^-4 g/kg; dose 1 mg/kg i.v.; anesthetized normal rats; Means ± S.D.; n=8
Protocol: as §1

norepinephrine = assay: concentration of norepinephrine in blood (plasma NE); assay type: in vivo, rat; settings: injected to the veins, after ten minutes, Means ± S.D, N=6, Control 3.55 ± 0.31
Protocol: The effect on the concentration of norepinephrine in blood Four tannins were injected to the veins of various rats respectively at different concentrations. After ten minutes, the blood of the rats were sampled to determine the concentration of norepinephrine in their blood. Obviously, these compounds can reduce the concentration of norepinephrine,i.e., they can inhibit the secretion of norepinephrine and relax the adrenergic tension, and therefore the blood pressure can be reduced.

normal rats (WKY) = assay: depression of tail arterial blood pressure in normal rats (WKY); assay type: in vivo, rat; settings: injected, Means±S.D., N=11
Protocol: (§2) The effect on the blood pressure of spontaneously hypertensive rats (SHR) and normal rats (WKY)
(§3) The tannins obtained in the example 1 were injected into various rats respectively at different concentrations.
(§4) The data (Means±S.D.) in table 1 represents the value of the depression range of blood pressure (N=11). In comparison to conventional antihypertensive drugs, guanethidine can depress the blood pressure of hypertensive rats in a range of 28.8±7.95 mmHg (N=8) with a injection concentration of 1 mg/kg, prazosin in a range of 31.4±7.17 mmHg (N=8) and nifedipine in a range of 10.8±2.78 mmHg (N=8) at the same concentration.

[3] = lethal dosage (LD50) in rats; assay type: in vivo; settings: rat, in vivo
Protocol: (§5) Furthermore, the lethal dosages (LD50) for the rats were determined. The LD50 of corilagin and geraniin were greater than 100 mg/kg, and the LD50 of 6-O-galloyl-D-glucose and 1,2,3,4,6-penta-O-galloyl-D-glucose were greater than 50 mg/kg. Therefore, these four tannins can be used as a safe and effective […] drugs.

[4] = system: spontaneously hypertensive rats (SHR); assay: depression of tail arterial blood pressure in spontaneously hypertensive rats (SHR); assay type: in vivo, rat; settings: for Depression of blood pressure, SHR: injected, Means±S.D., N=11; for depress the blood pressure of hypertensive rats (conventional antihypertensive drugs): 1 mg/kg injection, N=8
Protocol: as §2, §3, §4

rats = assay: lethal dosage (LD50) in rats; assay type: in vivo
Protocol: as §5

In the case of `O=C(OC[C@H]1O[C@@H](OC(=O)c2cc(O)c(O)c(O)c2)[C@H](OC(=O)c2cc(O)c(O)c(O)c2)[C@@H](OC(=O)c2cc(O)c(O)c(O)c2)[C@@H]1OC(=O)c1cc(O)c(O)c(O)c1)c1cc(O)c(O)c(O)c1` [1,2,3,4,6-penta-O-galloyl-D-glucose, 1,2,3,4,6-penta-O-galloyl-β-D-glucose], the “Inhibition (%), Norepinephrine” value [1] was 70.6 ± 10.7%, the “Inhibition (%), Octopamine” value [2] was 72.1 ± 14.8% and the “Plasma NE” value (norepinephrine; 1 mg/kg) was 1.94 ± 0.19 pmol/mL. For the same compound, the “Plasma NE” value (norepinephrine; 5 mg/kg) was 1.23 ± 0.21 pmol/mL, the “Depression of blood pressure, WKY” value (normal rats (WKY); 1 mg/kg) was 2.62 ± 2.33 mmHg and the “Depression of blood pressure, WKY” value (normal rats (WKY); 5 mg/kg) was 5.74 ± 2.41 mmHg. The LD50 [3] was greater than 50 mg/kg, the “Depression of blood pressure, SHR” value ([4]; 1 mg/kg) was 13.28 ± 6.22 mmHg and the “Depression of blood pressure, SHR” value ([4]; 5 mg/kg) was 29.57 ± 13.38 mmHg.

For `O=C(OC[C@H]1OC(O)[C@H](O)[C@@H](O)[C@@H]1O)c1cc(O)c(O)c(O)c1` (stereo partly drawn) [6-O-galloyl-D-glucose], the “Inhibition (%), Norepinephrine” value [1] was 64.1 ± 15.1%, the “Inhibition (%), Octopamine” value [2] was 65.3 ± 11.3% and the “Plasma NE” value (norepinephrine; 1 mg/kg) was 2.14 ± 0.09 pmol/mL. For the same compound, the “Plasma NE” value (norepinephrine; 5 mg/kg) was 1.76 ± 0.22 pmol/mL, the “Depression of blood pressure, WKY” value (normal rats (WKY); 1 mg/kg) was 5.81 ± 5.07 mmHg and the “Depression of blood pressure, WKY” value (normal rats (WKY); 5 mg/kg) was 5.21 ± 3.48 mmHg. The LD50 [3] was greater than 50 mg/kg, the “Depression of blood pressure, SHR” value ([4]; 1 mg/kg) was 17.28 ± 7.08 mmHg and the “Depression of blood pressure, SHR” value ([4]; 5 mg/kg) was 24.12 ± 9.93 mmHg.

With `O=C(O[C@@H]1O[C@@H]2COC(=O)c3cc(O)c(O)c(O)c3-c3c(cc(O)c(O)c3O)C(=O)O[C@H]([C@H]1O)[C@@H]2O)c1cc(O)c(O)c(O)c1` [Corilagin, corilagin] the “Inhibition (%), Norepinephrine” value [1] was 83.4 ± 7.3%, the “Inhibition (%), Octopamine” value [2] was 65.5 ± 27.5% and the “Plasma NE” value (norepinephrine; 0.5 mg/kg) was 2.19 ± 0.22 pmol/mL. The “Plasma NE” value (norepinephrine; 1 mg/kg) was 1.55 ± 0.19 pmol/mL, the “Depression of blood pressure, WKY” value (normal rats (WKY); 1 mg/kg) was 3.85 ± 2.64 mmHg and the “Depression of blood pressure, WKY” value (normal rats (WKY); 5 mg/kg) was 10.85 ± 4.89 mmHg. For the same compound, the LD50 [3] was greater than 100 mg/kg, the “Depression of blood pressure, SHR” value ([4]; 1 mg/kg) was 17.85 ± 3.38 mmHg and the “Depression of blood pressure, SHR” value ([4]; 5 mg/kg) was 26.57 ± 7.92 mmHg.

For `O=C1O[C@H]2[C@@H]3OC(=O)c4cc(O)c(O)c(O)c4-c4c(cc(O)c(O)c4O)C(=O)OC[C@H]2O[C@@H](OC(=O)c2cc(O)c(O)c(O)c2)[C@@H]3OC(=O)c2cc(O)c(O)c3c2[C@@H]2C1=CC(=O)[C@](O)(O3)C2(O)O` [Geraniin, geraniin], the “Inhibition (%), Norepinephrine” value [1] was 87.1 ± 6.5%, the “Inhibition (%), Octopamine” value [2] was 74.8 ± 13.5% and the “Plasma NE” value (norepinephrine; 0.5 mg/kg) was 2.66 ± 0.19 pmol/mL. For the same compound, the “Plasma NE” value (norepinephrine; 1 mg/kg) was 2.17 ± 0.09 pmol/mL, the “Depression of blood pressure, WKY” value (normal rats (WKY); 1 mg/kg) was 3.57 ± 4.72 mmHg and the “Depression of blood pressure, WKY” value (normal rats (WKY); 5 mg/kg) was 13.28 ± 6.67 mmHg. The LD50 (rats) was “greater than 100 mg/kg”, the “Depression of blood pressure, SHR” value ([4]; 1 mg/kg) was 19.28 ± 5.49 mmHg and the “Depression of blood pressure, SHR” value ([4]; 5 mg/kg) was 25.85 ± 4.18 mmHg.

In the case of `N=C(N)NCCN1CCCCCCC1` [guanethidine, reference compound], the “depress the blood pressure of hypertensive rats (conventional antihypertensive drugs)” value (“depress the blood pressure” for short) [4] was 28.8±7.95 mmHg.

In the case of `COC(=O)C1=C(C)NC(C)=C(C(=O)OC)C1c1ccccc1[N+](=O)[O-]` [nifedipine, reference compound], the “depress the blood pressure” value [4] was 10.8±2.78 mmHg.

For `COc1cc2nc(N3CCN(C(=O)c4ccco4)CC3)nc(N)c2cc1OC` [prazosin, reference compound], the “depress the blood pressure” value [4] was 31.4±7.17 mmHg.

From patent US5266319A, “Tannin derivatives and their use for treatment of hypertension” (National Science Council, priority 1992, dated 1993)
